Test results: US9808469B2, “Antitumor activity of multi-kinase inhibitors in triple negative breast cancer” (ENTRECHEM, S.L, priority 2014, dated 2017)
Read-outs that look alike come from different tables or passages of the source.

How the values were obtained:
BT-549 cells = experiment: MTT metabolization, inhibition of BT-549 cell proliferation; assay type: cell-based; settings: Homo sapiens, read-out: Percentage inhibition Formula (III) mean
Description: These triple negative breast cancer cell lines were obtained from the American Type Culture Collection Cell Biology Collection (ATCC) (Manassas, Va.). The medium was changed every 2 days.
Cell proliferation and growth experiments were carried out using 3-(4,5-dimethylthiazol-2-yl)-2,5-diphenyltetrazolium bromide (MTT) uptake assays, where MTT is reduced to purple formazan by the mitochondria of living cells. Increase in cell number is detected by augmented MTT metabolization, and decrease in cell number is reflected by a decrease. […] The cells were treated with the drug at different concentrations to plot the dose-response curves in all cancer cell lines using in the study. […] After treatment, each well was replaced with 250 μL of fresh medium containing MTT ([…]) and incubated for 1 hour. The medium was then removed and 500 μL of dimethyl sulfoxide was added to each well. The plate was agitated in the dark for 5 minutes to dissolve the MTT-formazan crystals. The absorbance of the samples was recorded at 562 nm in a multi-well plate reader (BMG labtech). Results were plotted as the mean values of quadruplicates from a representative experiment that was repeated at least two independent times.
Combination index values less than 1 indicate synergism, values equal to 1 indicate an additive effect, whereas values greater than 1 indicate antagonism. Combination index values from three independent experiments were generated.

BT549 cells = experiment: Cell cycle analysis by flow cytometry (propidium iodide); assay type: cell-based; settings: 500 nM, 24 h
Description: (§1) Cell cycle analyses and evaluation of apoptosis were performed by flow cytometry using propidium iodide and Annexin V, respectively.
(§2) For cell cycle analyses, HS578T, BT549 and MDA-MB-231 cells were cultured in 100-mm culture dishes, grown to 70% confluence, and treated with 500 nM Formula (III) for 24 h. Cell monolayers were then incubated in trypsin-EDTA and resuspended in 1 mL of PBS. After three washes with PBS, the cell pellets were resuspended in ice cold 70% ethanol for 2 min and centrifuged 5 min at 1800 rpm. The cell pellets were treated with 1 mL of propidium iodide (PI) staining solution (PBS containing 50 μg/mL of PI, 0.5% Tween 20, 0.1 μg/mL RNase A) (BD Biosciences) and incubated in the dark for 1 h. DNA content and cell cycle analyses were performed by using a FACS canto II flow cytometer and the CellQuest software (BD Biosciences).

HS578T cells [1] = experiment: as above; assay type: cell-based; settings: 500 nM, 24 h
Description: as §1, §2

MDA-MB-231 cells = experiment: as above; assay type: cell-based; settings: 500 nM, 24 h
Description: as §1, §2

[2] = test system: PI3K/mTOR/AKT and JAK/STAT pathway; experiment: Western Blot of PI3K/mTOR/AKT and JAK/STAT pathway components; assay type: cell-based; settings: 500 nM, up to 24 h
Description: (§3) Western-blot and phospho-array kits were used for evaluation of signaling intermediates.
HS578T and BT549 cell lines were grown in DMEM 10% of FBS and at 70% confluence were treated with Formula (III) at 500 nM for 6, 12 and 24 hours. Cells were washed with phosphate-buffered saline (PBS) (137 mM NaCl, 2.7 mM KCl, 8 mM Na2HPO4, 1.5 mM KH2PO4) and lysed in ice-cold lysis buffer (20 mM Tris-HCl [pH 7.0], 140 mM NaCl, 50 mM EDTA, 10% glycerol, 1% Nonidet P-40, 1 μM pepstatin, 1 μg/mL aprotinin, 1 μg/mL leupeptin, 1 mM phenylmethyl sulfonyl fluoride, 1 mM sodium orthovanadate). Lysates were centrifuged at 10000 g at 4° C. for 10 minutes. The protein level in the supernatants was quantified using BCA protein assay (Sigma Aldrich). A total of 50 μg of protein of each sample was used for analysis. Samples were then boiled in electrophoresis sample buffer and placed on 6%-15% sodium dodecyl sulfate-polyacrylamide gel electrophoresis (SDS-PAGE) gels, depending on the molecular weight of the proteins to be analyzed. Briefly, after electrophoresis, proteins in gels were transferred to polyvinylidene difluoride membranes (Millipore Corporation). Membranes were blocked in Tris-buffered saline with Tween (TBST) (100 mM Tris [pH 7.5], 150 mM NaCl, 0.05% Tween 20) containing 1% of bovine serum albumin for 1 h and then incubated overnight with the corresponding antibody. […]

HS578T cells [3] = experiment: Western Blot of DNA damage and cell cycle markers; assay type: cell-based; settings: 500 nM, up to 24 h
Description: as §3
HS578T and BT549 cell lines were grown in DMEM 10% of FBS and at 70% confluence were treated with Formula (III) at 500 nM for 6, 12 and 24 hours. Cells were washed with phosphate-buffered saline (PBS) (137 mM NaCl, 2.7 mM KCl, 8 mM Na2HPO4, 1.5 mM KH2PO4) and lysed in ice-cold lysis buffer (20 mM Tris-HCl [pH 7.0], 140 mM NaCl, 50 mM EDTA, 10% glycerol, 1% Nonidet P-40, 1 μM pepstatin, 1 μg/mL aprotinin, 1 μg/mL leupeptin, 1 mM phenylmethyl sulfonyl fluoride, 1 mM sodium orthovanadate). Lysates were centrifuged at 10000 g at 4° C. for 10 minutes. The protein level in the supernatants was quantified using BCA protein assay (Sigma Aldrich). A total of 50 μg of protein of each sample was used for analysis. Samples were then boiled in electrophoresis sample buffer and placed on 6%-15% sodium dodecyl sulfate-polyacrylamide gel electrophoresis (SDS-PAGE) gels, depending on the molecular weight of the proteins to be analyzed. Briefly, after electrophoresis, proteins in gels were transferred to polyvinylidene difluoride membranes (Millipore Corporation). Membranes were blocked in Tris-buffered saline with Tween (TBST) (100 mM Tris [pH 7.5], 150 mM NaCl, 0.05% Tween 20) containing 1% of bovine serum albumin for 1 h and then incubated overnight with the corresponding antibody. Anti-pS473-AKT and anti-pT308-AKT were purchased from Santa Cruz; Anti-pS6, anti-pSTAT3 and anti-GADPH were purchased from Cell Signalling Technology; Anti-pH3, were purchased from Millipore-Cell Signaling; anti-p-H2AX were purchased from BD Biosciences. After washing with TBST, membranes were incubated with HRP-conjugated anti-mouse or anti-rabbit secondary antibodies (1:5000 dilution) for 1 hour and bands were visualized by using ECL Plus Western Blotting Detection System (GE Healthcare, Buckinghamshire, United Kingdom).

animal models = experiment: Studies in animal models; settings: in vivo

SMILES: C[C@]12O[C@H](C[C@@H](O)[C@H]1O)n1c3ccccc3c3c4c(c5c6ccccc6n2c5c31)C(=O)NC4=O [Formula (III)]
- inhibition at 0.1 µM (BT-549 cells; BT-549, Formula (III) 100 nM alone (Table 9)): 68.8%
- inhibition at 0.1 µM (BT-549 cells; BT-549, Formula (III) 100 nM alone (Table 10)): 90.8%
- inhibition at 0.12 µM (BT-549 cells; BT-549, Formula (III) 120 nM alone (Table 7)): 75.5%
- inhibition at 0.12 µM (BT-549 cells; BT-549, Formula (III) 120 nM alone): 75.5%
- inhibition at 0.18 µM (BT-549 cells; BT-549, Formula (III) 180 nM alone (Table 7)): 63.7%
- inhibition at 0.18 µM (BT-549 cells; BT-549, Formula (III) 180 nM alone): 63.7%
- inhibition at 0.2 µM (BT-549 cells; BT-549, Formula (III) 200 nM alone (Table 8)): 98.5%
- inhibition at 0.2 µM (BT-549 cells; BT-549, Formula (III) 200 nM alone (Table 9)): 72.1%
- inhibition at 0.2 µM (BT-549 cells; BT-549, Formula (III) 200 nM alone (Table 10)): 71.4%
- inhibition at 0.24 µM (BT-549 cells; BT-549, Formula (III) 240 nM alone (Table 7)): 45%
- inhibition at 0.24 µM (BT-549 cells; BT-549, Formula (III) 240 nM alone): 45%
- inhibition at 0.26 µM (BT-549 cells; BT-549, Formula (III) 260 nM alone (Table 8)): 92.9%
- inhibition at 0.3 µM (BT-549 cells; BT-549, Formula (III) 300 nM alone (Table 7)): 31.9%
- inhibition at 0.3 µM (BT-549 cells; BT-549, Formula (III) 300 nM alone (Table 8)): 78%
- inhibition at 0.3 µM (BT-549 cells; BT-549, Formula (III) 300 nM alone (Table 9)): 55.9%
- inhibition at 0.3 µM (BT-549 cells; BT-549, Formula (III) 300 nM alone (Table 10)): 62.8%
- inhibition at 0.3 µM (BT-549 cells; BT-549, Formula (III) 300 nM alone): 31.9%
- inhibition at 0.38 µM (BT-549 cells; BT-549, Formula (III) 380 nM alone (Table 8)): 75.8%
- inhibition at 0.4 µM (BT-549 cells; BT-549, Formula (III) 400 nM alone (Table 9)): 36.3%
- inhibition at 0.4 µM (BT-549 cells; BT-549, Formula (III) 400 nM alone (Table 10)): 38.5%
- increase of cells in G2/M phase (BT549 cells): 22%
- increase of cells in G2/M phase (HS578T cells [1]): 15%
- increase of cells in G2/M phase (MDA-MB-231 cells): 18%
- phosphorylation of AKT, p70 S6 and STAT3 [2]: inhibits components of the PI3K/mTOR/AKT and JAK/STAT pathway
- Cyclin B and p-Cdc2 levels (HS578T cells [3]): increase
- cyclin D and Cyclin A levels (HS578T cells [3]): down-regulated
- phosphorylated levels of γH2AX (HS578T cells [3]): increase in the phosphorylated levels of γH2AX in a time dependent manner
- phosphorylation of p53 and chk2 (HS578T cells [3]): induced the phosphorylation of p53 and chk2
- toxicities in animal models (animal models): no evidence of toxicities
